The record followed here is PubChem BioAssay AID226 (DTP/NCI, 2004).

Several values for one entry are separate records, joined by “and”; a condition that tells them apart may be missing. Equal entries are not always repeated. Inconclusive results and toxic doses are left out.

The test deals with B6C3F1 mice, intracerebral ependymoblastoma, median survival T/C. Nature of the test: NCI In Vivo Anticancer Drug Screen. Data for tumor model Ependymoblastoma (intracerebral) in B6C3F1 mice. Conditions: endpoint: median survival time, higher = longer survival. The method, then: The antitumor activity of compounds was measured in mice bearing transplantable tumors. Survival or tumor size were measured and the results are expressed as the measurement made in the treated group (T) divided by the measurement made in the vehicle treated control group (C). The tumor model used in this assay is Ependymoblastoma (intracerebral) in B6C3F1 mice

Setting [1] is: dose: 16.0 mg/kg/injection, schedule: Q01DX005 (ip), vehicle: saline.
[2] abbreviates: dose: 32.0 mg/kg/injection, schedule: Q01DX005 (ip), vehicle: saline.
The mark [3] stands for this setting: dose: 64.0 mg/kg/injection, schedule: Q01DX005 (ip), vehicle: saline.
[4] abbreviates: dose: 128.0 mg/kg/injection, schedule: Q01DX005 (ip), vehicle: saline.

In the case of `N=[N+]=CC(=O)CCC(NC(=O)C(CCC(=O)C=[N+]=N)NC(=O)CCC(N)C(=O)O)C(=O)O` (stereo not drawn), the T/C is, setting by setting: (dose: 0.05 mg/kg/injection, schedule: Q01DX005 (ip), vehicle: Klucel (hydroxypropylcellulose) (HPC)) 100 % of control and 106 % of control; (dose: 0.1 mg/kg/injection, schedule: Q01DX005 (ip), vehicle: Klucel (hydroxypropylcellulose) (HPC)) 90 % of control and 107 % of control; (dose: 0.2 mg/kg/injection, schedule: Q01DX005 (ip), vehicle: Klucel (hydroxypropylcellulose) (HPC)) 99 % of control and 108 % of control; (dose: 0.4 mg/kg/injection, schedule: Q01DX005 (ip), vehicle: Klucel (hydroxypropylcellulose) (HPC)) 97 % of control and 114 % of control.

Regarding `CN(Cc1cnc2nc(N)nc(N)c2n1)c1c(Cl)cc(C(=O)NC(CCC(=O)O)C(=O)O)cc1Cl` (stereo not drawn), the T/C reads like this: (dose: 16.0 mg/kg/injection, schedule: Q01DX005 (ip), vehicle: saline with Tween-80) 95 % of control and 114 % of control; under setting [1], 100 % of control; (dose: 32.0 mg/kg/injection, schedule: Q01DX005 (ip), vehicle: Klucel (hydroxypropylcellulose) (HPC)) 100 % of control; (dose: 32.0 mg/kg/injection, schedule: Q01DX005 (ip), vehicle: saline with Tween-80) 97 % of control and 107 % of control; under setting [2], 92 % of control and 103 % of control; (dose: 64.0 mg/kg/injection, schedule: Q01DX005 (ip), vehicle: Klucel (hydroxypropylcellulose) (HPC)) 104 % of control. For the same molecule, the T/C was 100 % of control and 107 % of control (dose: 64.0 mg/kg/injection, schedule: Q01DX005 (ip), vehicle: saline with Tween-80); 101 % of control and 104 % of control under setting [3]; 89 % of control (dose: 128.0 mg/kg/injection, schedule: Q01DX005 (ip), vehicle: Klucel (hydroxypropylcellulose) (HPC)); 98 % of control and 100 % of control (dose: 128.0 mg/kg/injection, schedule: Q01DX005 (ip), vehicle: saline with Tween-80); 100 % of control and 106 % of control under setting [4]; 96 % of control (dose: 256.0 mg/kg/injection, schedule: Q01DX005 (ip), vehicle: Klucel (hydroxypropylcellulose) (HPC)).

In the case of `F`, the T/C is 112 % of control under setting [1], 107 % of control under setting [2] and 105 % of control under setting [3].

Regarding `Nc1n[nH]c(N)n1`, the T/C runs as follows: under setting [4], 93 % of control and 88 % of control; (dose: 256.0 mg/kg/injection, schedule: Q01DX005 (ip), vehicle: saline) 95 % of control and 100 % of control; (dose: 512.0 mg/kg/injection, schedule: Q01DX005 (ip), vehicle: saline) 92 % of control and 103 % of control; (dose: 1024.0 mg/kg/injection, schedule: Q01DX005 (ip), vehicle: saline) 118 % of control and 87 % of control.

For `CN1CC[C@]23c4c5ccc(O)c4O[C@H]2C(=O)CC[C@H]3[C@H]1C5`, the T/C runs as follows: (dose: 6.25 mg/kg/injection, schedule: Q01DX005 (iv), vehicle: saline) 113 % of control; (dose: 12.5 mg/kg/injection, schedule: Q01DX005 (iv), vehicle: saline) 114 % of control; (dose: 25.0 mg/kg/injection, schedule: Q01DX005 (iv), vehicle: saline) 122 % of control.

Regarding `CS(C)=O`, the T/C was 103 % of control (dose: 500.0 mg/kg/injection, schedule: Q01DX005 (ip), vehicle: water); 98 % of control (dose: 1000.0 mg/kg/injection, schedule: Q01DX005 (ip), vehicle: saline); 97 % of control (dose: 1000.0 mg/kg/injection, schedule: Q01DX005 (ip), vehicle: water); 96 % of control and 98 % of control and 100 % of control (dose: 2000.0 mg/kg/injection, schedule: Q01DX001 (ip), vehicle: saline); 109 % of control (dose: 2000.0 mg/kg/injection, schedule: Q01DX005 (ip), vehicle: saline); 103 % of control (dose: 2000.0 mg/kg/injection, schedule: Q01DX005 (ip), vehicle: water). Also, the T/C (dose: 2.0 grams/kg/injection, schedule: Q01DX001 (ip), vehicle: saline) is 102 % of control; the T/C (dose: 4000.0 mg/kg/injection, schedule: Q01DX001 (ip), vehicle: saline) is 91 % of control and 95 % of control and 103 % of control; the T/C (dose: 4000.0 mg/kg/injection, schedule: Q01DX005 (ip), vehicle: saline) was 103 % of control; the T/C (dose: 4000.0 mg/kg/injection, schedule: Q01DX005 (ip), vehicle: water) is 105 % of control; the T/C (dose: 4.0 grams/kg/injection, schedule: Q01DX001 (ip), vehicle: saline) was 95 % of control; the T/C (dose: 8000.0 mg/kg/injection, schedule: Q01DX001 (ip), vehicle: saline) was 101 % of control (2×) and 107 % of control. Besides, the T/C (dose: 8000.0 mg/kg/injection, schedule: Q01DX005 (ip), vehicle: saline) is 103 % of control; the T/C (dose: 8000.0 mg/kg/injection, schedule: Q01DX005 (ip), vehicle: water) was 98 % of control; the T/C (dose: 8.0 grams/kg/injection, schedule: Q01DX001 (ip), vehicle: saline) was 99 % of control; the T/C (dose: 16000.0 mg/kg/injection, schedule: Q01DX001 (ip), vehicle: saline) is 93 % of control.

Turning to `CC(C)c1cc(C(=O)O)c(O)c(C(C)C)c1.CC(C)c1cc(C(=O)O)c(O)c(C(C)C)c1.[Cu]`, the T/C runs as follows: (dose: 6.25 mg/kg/injection, schedule: Q01DX005 (ip), vehicle: saline with Tween-80) 103 % of control; (dose: 12.5 mg/kg/injection, schedule: Q01DX005 (ip), vehicle: saline with Tween-80) 103 % of control.

Take `O=C(O)C(O)C(O)C(=O)O.[NH-]C1CCCCC1[NH-].[Pt+2]` (stereo not drawn): the T/C is 96 % of control (dose: 2.0 mg/kg/injection, schedule: Q01DX005 (ip), vehicle: dextrose) and 110 % of control (dose: 4.0 mg/kg/injection, schedule: Q01DX005 (ip), vehicle: dextrose).

Regarding `CCSc1ncnc2c1ncn2C1OC(CO)C(O)C1O` (stereo not drawn), the T/C reads like this: (dose: 50.0 mg/kg/injection, schedule: Q01DX005 (ip), vehicle: saline with Tween-80) 100 % of control and 106 % of control and 122 % of control; (dose: 100.0 mg/kg/injection, schedule: Q01DX005 (ip), vehicle: saline with Tween-80) 103 % of control and 106 % of control; (dose: 200.0 mg/kg/injection, schedule: Q01DX005 (ip), vehicle: saline with Tween-80) 107 % of control and 109 % of control.

For `Cc1ncc(CNC(=O)N(CCCl)N=O)c(N)n1`, the T/C runs as follows: (dose: 8.0 mg/kg/injection, schedule: Q01DX001 (ip), vehicle: water) 108 % of control and 121 % of control; (dose: 16.0 mg/kg/injection, schedule: Q01DX001 (ip), vehicle: water) 175 % of control; (dose: 32.0 mg/kg/injection, schedule: Q01DX001 (ip), vehicle: water) 262 % of control and 267 % of control.

As for `CCC1=C(c2ccc(OC)cc2)CCC(C(=O)O)C1C` (stereo not drawn), the T/C is 102 % of control (dose: 4.0 mg/kg/injection, schedule: Q01DX005 (ip), vehicle: saline); 102 % of control (dose: 8.0 mg/kg/injection, schedule: Q01DX005 (ip), vehicle: saline); 102 % of control under setting [1]; 103 % of control under setting [2].

In the case of `CC(=O)OCC1OC(n2cnc3c(=S)nc(N)[nH]c32)C(OC(C)=O)C1OC(C)=O` (stereo not drawn), the T/C is 102 % of control and 109 % of control (dose: 3.12 mg/kg/injection, schedule: Q01DX005 (ip), vehicle: saline); 104 % of control and 105 % of control and 116 % of control (dose: 6.25 mg/kg/injection, schedule: Q01DX005 (ip), vehicle: saline); 98 % of control and 110 % of control (dose: 12.5 mg/kg/injection, schedule: Q01DX005 (ip), vehicle: saline); 104 % of control (dose: 25.0 mg/kg/injection, schedule: Q01DX005 (ip), vehicle: saline).

Regarding `NC(=O)c1cn(C2OC(CO)C(O)C2O)c2ncnc(N)c12` (stereo not drawn), the T/C was 92 % of control (dose: 0.38 mg/kg/injection, schedule: Q01DX005 (ip), vehicle: Klucel (hydroxypropylcellulose) (HPC)); 90 % of control (dose: 0.75 mg/kg/injection, schedule: Q01DX005 (ip), vehicle: Klucel (hydroxypropylcellulose) (HPC)); 103 % of control (dose: 1.5 mg/kg/injection, schedule: Q01DX005 (ip), vehicle: Klucel (hydroxypropylcellulose) (HPC)); 94 % of control (dose: 3.0 mg/kg/injection, schedule: Q01DX005 (ip), vehicle: Klucel (hydroxypropylcellulose) (HPC)).

With `CC(=O)Nc1ccn(C2OC(COC(C)=O)C(OC(C)=O)C2OC(C)=O)c(=O)n1` (stereo not drawn), the T/C (dose: 150.0 mg/kg/injection, schedule: Q01DX005 (ip), vehicle: saline with Tween-80) is 105 % of control; the T/C (dose: 300.0 mg/kg/injection, schedule: Q01DX005 (ip), vehicle: saline with Tween-80) is 112 % of control; the T/C (dose: 600.0 mg/kg/injection, schedule: Q01DX005 (ip), vehicle: saline with Tween-80) was 107 % of control; the T/C (dose: 1200.0 mg/kg/injection, schedule: Q01DX005 (ip), vehicle: saline with Tween-80) is 120 % of control.
